Patent publication US9622953B2, “Cosmetic use of catalytic oxidation compounds chosen from porphyrins, phthalocyanines and/or porphyrazines as deodorant agent” (L'Oreal, priority 2011, dated 2017)

What was measured:
[1] = Test 3: Activation of Hydrogen Peroxide; settings: 1 mM porphyrin in 10-volume hydrogen peroxide, spontaneous pH, daylight
Protocol: 1 mM of a porphyrin compound is placed in 10-volume hydrogen peroxide, spontaneous pH.
The solution is subjected to daylight.
The content of hydrogen peroxide is then assayed. The porphyrin compound is regarded as within the invention if it reduces the amount of hydrogen peroxide by factor of at least 2 (5 volumes or less).

[2] = Test 1: Oxidation of 2,2,6,6-tetramethylpiperidine (TEMP); settings: phosphate buffer pH 7.4, 50 mM TEMP, porphyrin 0.5 μM, oxygen saturated, daylight, 1 hour, EPR
Protocol: (§1) The oxidizing agent used during this test is dissolved oxygen.
A solution comprising a phosphate buffer (pH 7.4), 50 mM of the compound 2,2,6,6-tetramethylpiperidine (TEMP) and a porphyrin compound at 0.5 μM is prepared. The solution is saturated with oxygen. The solution is subjected to daylight.
After 1 hour, electron paramagnetic resonance spectrometry (EPR) is performed on the oxidized form of the compound 2,2,6,6-tetramethylpiperidine (TEMP), which corresponds to the compound (2,2,6,6-tetramethylpiperidin-1-yl)oxyl, known as TEMPO.
With a porphyrin compound according to the invention, the appearance of the compound TEMPO is observed after bringing into contact for 1 hour.

[3] = Blind sniff test of incubated flasks of human sweat by a panel of 8 testers; settings: 1 mg of porphyrin compound in flask of sweat, same trial as Example 1
Protocol: 1) Human sweat is collected. During this collecting, the sweat is frozen.
2) The sweat is subsequently placed in a flask, so that there is an air phase above, once the flask is closed. 1 gram of sweat is placed in a 20 ml flask.
3) The porphyrin compound is placed in the flask in a proportion of 0.1 mg.
4) The flask is closed and incubated at 37° C. A test is then carried out which consists in sniffing the flask at t=4 hours and at t=16 hours.
The test is carried out blind and in comparison with a flask of sweat not comprising additive, a flask of sweat comprising a porphyrin compound not included in the present invention, such as cupric chlorophyllin, and a flask of sweat comprising 0.1 mg of triclosan.
The test is carried out by a panel composed of 8 testers who record their impression in terms of odorous intensity and of quality (ranging from neutral up to repulsive) and the mean of the impressions is produced.
1 mg of each of the porphyrin compounds is introduced into flasks comprising sweat collected in the same way as in Example 1.

[4] = Test 2: Oxidation of DMPO; settings: aqueous solution pH=7, 100 mM DMPO, porphyrin 100 μM, oxygen saturated, daylight, 1 hour, EPR
Protocol: as §1
An aqueous solution, pH=7, comprising 100 mM of DMPO and a porphyrin compound at 100 μM, is prepared. The solution is saturated with oxygen. The solution is subjected to daylight.
After 1 hour, electron paramagnetic resonance spectrometry (EPR) is performed on the oxidized form of the compound 5,5-dimethyl-1-pyrroline N-oxide, known as DMPO-OH.
More specifically, the EPR spectrum is characterized by a hyperfine coupling constant of a^N=a^H=14.6 G.

Molecule	reduction of the amount of hydrogen peroxide by factor of at least 2 (response to Test 3) [1]	formation of the compound TEMPO (response to Test 1) [2]	effectiveness in the sweat flask odour trial [3]	formation of DMPO-OH (response to Test 2) [4]
O=S(=O)(O)c1ccc(-c2c3nc(c(-c4ccc(S(=O)(=O)O)cc4)c4ccc([nH]4)c(-c4ccc(S(=O)(=O)O)cc4)c4nc(c(-c5ccc(S(=O)(=O)O)cc5)c5ccc2[nH]5)C=C4)C=C3)cc1 [anionic porphyrin compound]	responds positively	responds positively	effective	
C[n+]1ccc(-c2c3nc(c(-c4cc[n+](C)cc4)c4ccc([nH]4)c(-c4cc[n+](C)cc4)c4nc(c(-c5cc[n+](C)cc5)c5ccc2[nH]5)C=C4)C=C3)cc1 [cationic porphyrin compound]		responds positively	effective	responds positively
copper chlorophyllin [reference compound]		does not result in the formation of the compound TEMPO		
